From publication PMC10535741, “Styrylpyridinium Derivatives for Fluorescent Cell Imaging” (Pharmaceuticals, 2023)

What was measured:
[1] = system: murine bone-marrow-derived macrophages (BMDMs); assay: cells; conditions: Mus musculus, BMDM, 24 h, read-out: IC50 (BMDM viability)
Description: In this study, we used murine bone-marrow-derived macrophages (BMDMs) to evaluate the staining potential of the 6e compound in primary immune cells. […] To assess toxicity, the BMDMs were stained with various concentrations (0.1–100 μM) of compound 6e, and after 24 h, cell viability was measured using the CCK-8 assay (Figure 5).
To determine the cytotoxicity of the SP compound 6e, the cells were stained with various concentrations of the dye (0, 0.1, 1, 5, 10, and 100 μM). Briefly, 2 × 10^4 cells were plated in a 96-well plate in 100 μL of the medium. After 24 h, the cells were washed once and a solution of compound 6e in PBS was added to the cells. The cells were incubated in a humidified 5% CO2 incubator at 37 °C for 15–20 min. Then, the dye solution was replaced with medium. […] After 24 h, the medium was replaced with 10 μL of CCK-8 reagent in 100 μL of fresh medium. The cells were incubated in a humidified 5% CO2 incubator at 37 °C for 1–4 h. The absorbance at 450 nm was measured using a microplate spectrophotometer (BioTek Instruments, Winooski, VT, USA). Cell viability was calculated as a percentage of non-treated cell absorbance. IC50 values were calculated as the concentration at which 50% of the cells were viable.

BHK-21 cells = assay: Cell passaging assay, flow cytometry on day 6; type: cell-based, Syrian hamster; conditions: BHK-21, passaged twice, six days of culture; 25 μM 6e or 1 μM Deep Red
Description: In order to assess the stability of staining after prolonged cell culture, the stained BHK-21 cells (Day 1) were passaged twice (Days 2 and 4) and cultured for six days in total (Day 6, Figure 4). On day 6, the cells were collected and analysed by flow cytometry. […] It can be concluded that, in contrast to the Deep Red cell tracker, SP compound 6e effectively stains cells and can be used for up to 6 days of cell culture.
For the cell passaging, on day 0, BHK-21 cells were plated on a 6-well plate with a seeding density of 1.5 × 10^5 cells per well. On day 1, the cells were stained with 25 μM compound 6e or 1 μM CellTracker™ Deep Red dye as described above. […] On day 6, cells were collected for flow cytometry analysis. The cells were kept at 4 °C and analysed as described above.

[2] = system: Hek293 (human embryonic kidney); assay: in vitro; type: cell-based
Description: (§1) For selected compounds, 6a–6f, we performed a determination of the cytotoxicity in a wider variety of cancer and non-cancerous cell lines (see Table S2, Supplementary Materials) in order to learn the characteristic features of selectivity or the similarity of biological properties.
(§2) The HT-1080 (human connective tissue fibrosarcoma, ATCC® CCL-121™), MH-22A (mouse hepatocarcinoma, ECACC Cat. No. 96121721), A-549 (human lung carcinoma, ATCC® CCL-185™), NIH3T3 (Swiss Albino mouse embryo fibroblast, ECACC Cat. No. 93061524), Hek293 (human embryonic kidney, ATCC® CRL-1573™), BHK-21 (Syrian hamster kidney, ATCC® CCL-10™), A-431 (human epidermoid carcinoma, ATCC® CRL-1555™), Saos-2 (human osteosarcoma, ATCC® HTB-85™), HeLa (human epitheloid cervix carcinoma, ATCC® CCL-2™), U937 (human myeloid leukaemia, ATCC® CRL-1593.2™), C6 (rat glioma, ATCC® CCL-107™), and B16-F10 (murine melanoma, ATCC® CRL-6475™) cell lines were obtained from the American Type Culture Collection (ATCC) and European Collection of Authenticated Cell Cultures (ECACC).
(§3) HT-1080, MH-22A, A-549, NIH3T3, BHK-21, A-431, HeLa, and B16-F10 cells were cultured in Dulbecco’s Modified Eagle’s Medium (DMEM) with 2 mM glutamine and 10% foetal bovine serum (FBS). Hek293 cells were cultured in Eagle’s Minimum Essential Medium with 10% foetal bovine serum. U937 cells were cultured in RPMI-1640 Medium with 2 mM glutamine and 10% foetal bovine serum. C6 cells were cultured in Ham’s F12 Medium with 2 mM glutamine and 10% foetal bovine serum. Saos-2 cells were cultured in McCoy’s 5a Medium with 2 mM glutamine and 10% foetal bovine serum. The cells were incubated at 37 °C with 5% CO2, 95% air, and complete humidity. Once ~90% confluence was reached, they were detached using 0.05% trypsin/EDTA and counted. The cells were plated at optimally determined densities for the logarithmic phase of growth. These cells were then suspended at a concentration of 4000 cells/well for HT-1080, MH-22A, A-549, NIH3T3, BHK-21, A-431, HeLa, B16-F10, Hek293, and Saos-2 cells and a concentration of 9000 cells/well for U937, C6, Hek293, and GM08402 cells and added onto a 96-well plate. For background absorption, some wells remained cell free, i.e., as a blank control. Cells were incubated for 72 h at 37 °C and 5% CO2 where they were exposed to a media containing serial dilutions of the investigated compounds (n = 3). Cell viability was measured using the 3-(4,5-dimethylthiazol-2-yl)-2,5-diphenyl-tetrazolium bromide (MTT) assay. In brief, after incubating with compounds, the culture medium was removed and fresh medium with 0.2 mg/mL MTT was added to each well of the plate. After incubation (3 h, 37 °C, 5% CO2), the medium with MTT solution was removed and replaced with 200 µL DMSO and 25 µL Sorenson’s glycine buffer (glycine 0.1 M, NaCl 0.1 M, pH: 10.5 with 0.1 M NaOH). The plate was shaken for 15 min at room temperature and the optical density (OD) of the wells was determined using a multichannel spectrophotometer (Thermo Scientific Multiskan EX) at 540 nm. The quantity of the control cells was taken in calculations as 100%. The IC50 value was calculated using the program Graph Pad Prism® 3.0.
(§4) The HT-1080 (human connective tissue fibrosarcoma, ATCC® CCL-121™), MH-22A (mouse hepatocarcinoma, ECACC Cat.No. 96121721), A-549 (human lung carcinoma, ATCC® CCL-185™), NIH 3T3 (mouse Swiss Albino embryo fibroblast, ECACC Cat.No. 93061524), Hek293 (human embryonic kidney, ATCC® CRL-1573™), BHK-21 (hamster Syrian kidney, ATCC® CCL-10™), A-431 (human epidermoid carcinoma, ATCC® CRL-1555™), Saos-2 (human oste osarcoma, ATCC® HTB-85™) HeLa (human epitheloid cervix carcinoma, ATCC® CCL-2™), U937 (human myeloid leukaemia, ATCC® CRL-1593.2™), C6 (rat glioma, ATCC® CCL-107™), B16-F10 (murine melanoma, ATCC® CRL-6475™) cell lines were obtained from American Type Culture Collection (ATCC) and European Collection of Authenticated Cell Cultures […]
(§5) Table S2. […]

[3] = system: Saos-2 (human osteosarcoma); assay: in vitro; type: cell-based
Description: as §1, §2, §3, §4, §5

[4] = system: HeLa (human epitheloid cervix carcinoma); assay: in vitro; type: cell-based
Description: as §1, §2, §3, §4, §5

[5] = system: A-431 (human epidermoid carcinoma); assay: in vitro; type: cell-based
Description: as §1, §2, §3, §4, §5

[6] = system: A-549 (human lung carcinoma); assay: in vitro; type: cell-based
Description: as §1, §2, §3, §4, §5

[7] = system: U937 (human myeloid leukaemia); assay: in vitro; type: cell-based
Description: as §1, §2, §3, §4, §5

[8] = system: B16-F10 (murine melanoma); assay: in vitro; type: cell-based
Description: as §1, §2
as §3, with “3.0. […]” for “3.0.”

C6 (rat glioma) = assay: in vitro; type: cell-based
Description: as §1, §2
as §3, with “3.0. […]” for “3.0.”

[9] = system: BHK-21 (Syrian hamster kidney); assay: MTT cytotoxicity assay, BHK-21; type: cell-based
Description: as §1, §2, §3, §4, §5

[10] = system: NIH3T3 (Swiss Albino mouse embryo fibroblast); assay: in vitro; type: cell-based
Description: as §1, §2, §3, §4, §5

## CCCCCCCCCCCCCCCC[n+]1ccc(C=CC=Cc2cc3c4c(c2)CCCN4CCC3)cc1.[Br-] [Compound 6e, 1-hexadecyl-4-(4-(2,3,6,7-tetrahydro-1H,5H-pyrido[3,2,1-ij]quinolin-9-yl)buta-1,3-dien-1-yl)pyridin-1-ium bromide]
[1]
  IC50: 9.2 ± 1.5 µM
BHK-21 cells
  positive fluorescent cells on day 6: 15.0 ± 0.7%

## CCCCCCCCCCCCCCCC[n+]1ccc(C=Cc2cc(OC)c(OC)c(OC)c2)cc1.[Br-] [Compound 6b]
[2]
  Cytotoxicity IC50 Hek-293: 0.38 mg/L
[3]
  Cytotoxicity IC50 Saos-2: 0.60 mg/L
[4]
  Cytotoxicity IC50 HeLa: 0.82 mg/L
[5]
  Cytotoxicity IC50 A-431: 1.10 mg/L
[6]
  Cytotoxicity IC50 A-549: 0.98 mg/L
[7]
  Cytotoxicity IC50 U937: 1.39 mg/L
[8]
  Cytotoxicity IC50 B16-F10: 0.63 mg/L
C6 (rat glioma)
  Cytotoxicity IC50 C6: 1.23 mg/L
[9]
  Cytotoxicity IC50 BHK-21: 1.11 mg/L
[10]
  Cytotoxicity IC50 NIH3T3: 1.02 mg/L

## CCCCCCCCCCCC[n+]1ccc(C=Cc2cc(OC)c(OC)c(OC)c2)cc1.[Br-] [Compound 6a, 4-(3,4,5-trimethoxystyryl)-N-dodecylpyridinium bromide]
[9]; Syrian hamster, 72 h
  times lower cytotoxicity of 6a compared with 6d, BHK-21: 12.5 times
[10]; mouse, 72 h
  times lower cytotoxicity of 6a compared with 6d, NIH3T3: 21.9 times
